# Values quoted from earlier work as cited in PMC10443619 (ACS chemical biology, 2023).
# Assays:
# tau [1] = conditions: compared with YM-01
# tau [2] = tested on: tau
# tau [3] = conditions: compared with MKT-077
# [4] = not given; remark: listed apart in the source
half-life (t1/2),Substance,potency to prevent cellular tau accumulation (tau [1]),total tau in organotypic brain slices (tau [2]; rTg4510 mice),potency to prevent tau accumulation in HeLaC3 cells (tau [3]),blood-brain permeability [4],pathogenic tau in ex vivo brain slices (tau [2]; transgenic rTg4510 mice)
37 min,JG-98,greater potency to prevent cellular tau accumulation than YM-01,reduced total tau,,,
,YM-01,,,enhanced the potency to prevent tau accumulation,lacked detectable blood-brain permeability,reduced pathogenic tau
